Among the targets are PIK3CG (human) (UniProt P48736); PIK3CB (Human) (UniProt P42338); PIK3CA (human) (UniProt P42336); PIK3CD (Human) (UniProt O00329).
Holding throughout (assay): Enzyme Assay

By IC50 is commonly meant the midpoint of a concentration-inhibition curve. Low values mean greater potency, high ones weaker potency.

Molecules are shown by their SMILES.

PIK3CG (human), sequence (P48736 whole entry, looked up): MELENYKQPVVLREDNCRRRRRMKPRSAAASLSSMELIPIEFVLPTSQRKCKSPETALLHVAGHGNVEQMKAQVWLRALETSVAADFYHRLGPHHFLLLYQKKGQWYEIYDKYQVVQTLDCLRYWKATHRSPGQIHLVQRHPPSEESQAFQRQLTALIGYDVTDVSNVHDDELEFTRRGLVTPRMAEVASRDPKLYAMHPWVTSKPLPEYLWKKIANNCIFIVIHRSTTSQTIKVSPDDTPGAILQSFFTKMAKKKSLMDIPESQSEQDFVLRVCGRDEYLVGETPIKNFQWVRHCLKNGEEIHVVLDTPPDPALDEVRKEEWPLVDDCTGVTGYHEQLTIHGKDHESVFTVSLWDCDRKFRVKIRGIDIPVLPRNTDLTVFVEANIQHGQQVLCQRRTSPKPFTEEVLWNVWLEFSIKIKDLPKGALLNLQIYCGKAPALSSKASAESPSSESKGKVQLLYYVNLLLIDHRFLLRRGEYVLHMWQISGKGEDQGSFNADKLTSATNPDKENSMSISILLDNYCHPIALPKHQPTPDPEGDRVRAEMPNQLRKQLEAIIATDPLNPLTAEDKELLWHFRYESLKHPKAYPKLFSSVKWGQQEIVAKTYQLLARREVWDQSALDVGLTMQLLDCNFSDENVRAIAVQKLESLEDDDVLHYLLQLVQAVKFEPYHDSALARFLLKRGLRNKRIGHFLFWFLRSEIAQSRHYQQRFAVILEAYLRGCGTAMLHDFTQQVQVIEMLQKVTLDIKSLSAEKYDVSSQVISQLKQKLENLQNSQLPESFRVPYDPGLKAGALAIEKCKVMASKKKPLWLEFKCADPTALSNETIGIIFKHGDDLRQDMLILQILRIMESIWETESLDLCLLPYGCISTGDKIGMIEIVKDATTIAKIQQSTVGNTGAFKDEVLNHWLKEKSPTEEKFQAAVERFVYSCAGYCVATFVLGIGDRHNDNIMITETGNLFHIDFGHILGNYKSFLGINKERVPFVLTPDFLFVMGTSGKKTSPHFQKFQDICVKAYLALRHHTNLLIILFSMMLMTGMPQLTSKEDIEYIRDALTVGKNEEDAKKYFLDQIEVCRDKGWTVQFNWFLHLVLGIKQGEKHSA
PIK3CD (Human), sequence (O00329 whole entry, looked up): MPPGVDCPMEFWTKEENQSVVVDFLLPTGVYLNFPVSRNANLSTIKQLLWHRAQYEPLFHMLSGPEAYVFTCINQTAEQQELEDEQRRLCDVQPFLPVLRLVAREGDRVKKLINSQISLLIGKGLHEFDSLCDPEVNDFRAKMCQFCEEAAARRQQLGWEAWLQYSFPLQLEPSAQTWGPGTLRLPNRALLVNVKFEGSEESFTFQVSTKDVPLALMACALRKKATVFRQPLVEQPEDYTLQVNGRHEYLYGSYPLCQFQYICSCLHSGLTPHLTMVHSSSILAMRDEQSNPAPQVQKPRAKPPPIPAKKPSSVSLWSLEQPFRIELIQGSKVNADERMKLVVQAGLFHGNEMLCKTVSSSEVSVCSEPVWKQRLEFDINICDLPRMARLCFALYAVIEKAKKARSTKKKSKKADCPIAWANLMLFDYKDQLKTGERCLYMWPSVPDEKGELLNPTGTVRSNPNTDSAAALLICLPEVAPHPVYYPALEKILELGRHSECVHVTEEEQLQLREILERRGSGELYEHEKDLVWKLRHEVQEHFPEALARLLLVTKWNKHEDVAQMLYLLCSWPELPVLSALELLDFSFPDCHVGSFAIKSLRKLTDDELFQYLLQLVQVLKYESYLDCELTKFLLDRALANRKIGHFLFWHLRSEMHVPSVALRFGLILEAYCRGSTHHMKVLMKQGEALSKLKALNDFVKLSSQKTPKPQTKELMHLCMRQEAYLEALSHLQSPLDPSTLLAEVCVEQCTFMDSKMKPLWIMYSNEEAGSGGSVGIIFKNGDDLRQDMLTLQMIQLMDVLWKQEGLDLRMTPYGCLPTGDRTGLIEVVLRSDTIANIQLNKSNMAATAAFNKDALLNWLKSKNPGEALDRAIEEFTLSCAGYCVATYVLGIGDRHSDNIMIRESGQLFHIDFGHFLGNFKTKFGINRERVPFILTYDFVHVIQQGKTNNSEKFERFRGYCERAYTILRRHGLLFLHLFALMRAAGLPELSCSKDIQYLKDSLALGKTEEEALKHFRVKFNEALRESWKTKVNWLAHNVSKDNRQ
PIK3CA (human), sequence (P42336 whole entry, looked up): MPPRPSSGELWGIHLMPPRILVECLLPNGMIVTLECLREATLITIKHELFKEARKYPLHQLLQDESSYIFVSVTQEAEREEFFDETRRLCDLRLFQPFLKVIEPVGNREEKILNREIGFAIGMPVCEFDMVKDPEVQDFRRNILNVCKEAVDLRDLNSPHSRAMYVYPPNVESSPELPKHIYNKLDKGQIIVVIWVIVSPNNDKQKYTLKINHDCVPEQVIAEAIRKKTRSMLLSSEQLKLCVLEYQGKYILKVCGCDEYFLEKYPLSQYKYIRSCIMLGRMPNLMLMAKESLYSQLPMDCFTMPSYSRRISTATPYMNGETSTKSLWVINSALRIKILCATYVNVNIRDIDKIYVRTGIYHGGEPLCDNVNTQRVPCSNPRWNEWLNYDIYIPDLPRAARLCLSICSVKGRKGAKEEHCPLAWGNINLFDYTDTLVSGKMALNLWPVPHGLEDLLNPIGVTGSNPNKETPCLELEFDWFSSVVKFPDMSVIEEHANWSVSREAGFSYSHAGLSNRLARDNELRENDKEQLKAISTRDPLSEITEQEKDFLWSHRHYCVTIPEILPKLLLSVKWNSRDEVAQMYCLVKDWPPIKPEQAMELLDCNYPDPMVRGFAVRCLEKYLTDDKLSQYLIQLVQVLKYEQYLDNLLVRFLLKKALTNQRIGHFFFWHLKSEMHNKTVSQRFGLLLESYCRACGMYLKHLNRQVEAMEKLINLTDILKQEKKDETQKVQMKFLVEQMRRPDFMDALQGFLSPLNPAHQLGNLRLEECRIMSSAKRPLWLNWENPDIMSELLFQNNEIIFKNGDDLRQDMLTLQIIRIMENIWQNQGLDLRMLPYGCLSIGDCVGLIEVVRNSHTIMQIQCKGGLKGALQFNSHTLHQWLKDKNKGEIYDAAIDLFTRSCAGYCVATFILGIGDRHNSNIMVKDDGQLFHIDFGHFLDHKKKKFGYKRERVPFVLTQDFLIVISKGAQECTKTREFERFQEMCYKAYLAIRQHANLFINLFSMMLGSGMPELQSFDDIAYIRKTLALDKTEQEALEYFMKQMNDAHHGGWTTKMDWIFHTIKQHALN
PIK3CB (Human), sequence (P42338 whole entry, looked up): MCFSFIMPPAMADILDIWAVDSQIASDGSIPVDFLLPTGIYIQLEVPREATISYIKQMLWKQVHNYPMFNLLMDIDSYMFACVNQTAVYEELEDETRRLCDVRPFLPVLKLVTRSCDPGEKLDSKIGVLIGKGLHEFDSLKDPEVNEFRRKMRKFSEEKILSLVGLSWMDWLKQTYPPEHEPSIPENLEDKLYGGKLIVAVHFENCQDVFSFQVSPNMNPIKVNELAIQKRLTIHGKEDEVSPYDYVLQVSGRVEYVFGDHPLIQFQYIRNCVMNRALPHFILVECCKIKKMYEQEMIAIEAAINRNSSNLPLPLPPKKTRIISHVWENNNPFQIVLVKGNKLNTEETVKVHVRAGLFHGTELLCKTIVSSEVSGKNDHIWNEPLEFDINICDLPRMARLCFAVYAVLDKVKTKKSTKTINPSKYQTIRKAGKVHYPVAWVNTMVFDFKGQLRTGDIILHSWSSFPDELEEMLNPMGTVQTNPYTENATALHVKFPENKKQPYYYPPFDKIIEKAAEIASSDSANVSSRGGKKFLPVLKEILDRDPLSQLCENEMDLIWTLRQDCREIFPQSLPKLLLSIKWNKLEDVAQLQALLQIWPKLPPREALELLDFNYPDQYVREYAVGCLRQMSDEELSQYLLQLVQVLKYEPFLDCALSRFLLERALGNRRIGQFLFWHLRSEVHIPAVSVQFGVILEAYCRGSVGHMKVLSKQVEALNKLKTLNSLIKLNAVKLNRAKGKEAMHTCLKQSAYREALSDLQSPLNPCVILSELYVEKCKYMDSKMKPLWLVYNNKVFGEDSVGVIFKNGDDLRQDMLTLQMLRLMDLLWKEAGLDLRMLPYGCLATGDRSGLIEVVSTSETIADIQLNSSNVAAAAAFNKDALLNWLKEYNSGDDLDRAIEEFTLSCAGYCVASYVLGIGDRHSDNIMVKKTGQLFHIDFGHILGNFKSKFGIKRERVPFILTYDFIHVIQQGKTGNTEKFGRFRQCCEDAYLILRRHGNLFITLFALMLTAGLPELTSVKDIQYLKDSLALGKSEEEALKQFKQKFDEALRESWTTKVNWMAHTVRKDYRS

Turning to `Cc1cccc2cc(Cn3nc(-c4cccc(Cl)c4)c4c(N)ncnc43)n(-c3ccccc3F)c(=O)c12`, the IC50 on PIK3CG (human) and against PIK3CB (Human) was over 10000 nM throughout.
Regarding `Cc1ccccc1-n1c(Cn2nc(C(N)=O)c3c(N)ncnc32)cc2cccc(C)c2c1=O`, the 50% inhibitory concentration (IC50) was 100 to 1000 nM at PIK3CG (human), over 10000 nM against PIK3CA (human) and 100 to 1000 nM at PIK3CD (Human).
`Cc1cccc2cc(Cn3nc(-c4ccc(F)c(O)c4)c4c(N)ncnc43)n(-c3ccccc3F)c(=O)c12`: the 50% inhibitory concentration (IC50) against PIK3CG (human) was 100 to 1000 nM; against PIK3CA (human), over 10000 nM; on PIK3CB (Human) it was over 10000 nM.
`Cc1cccc2cc(Cn3nc(-c4ccc(O)cc4)c4c(N)ncnc43)n(-c3ccccc3F)c(=O)c12` returned a half-inhibitory concentration (IC50) on PIK3CG (human) of 100 to 1000 nM.
Regarding `Cc1cccc2cc(C(C)Nc3ncnc4[nH]cnc34)n(-c3cccc(F)c3)c(=O)c12` (centres undefined), the results for the 50% inhibitory concentration (IC50) against PIK3CG (human) and on PIK3CD (Human) were 100 to 1000 nM and under 100 nM, respectively.
Turning to `Cc1cccc2cc(Cn3nc(C(F)F)c4c(N)ncnc43)n(-c3ccccc3)c(=O)c12`, the IC50 against PIK3CG (human) is 100 to 1000 nM; against PIK3CA (human) it was over 10000 nM; against PIK3CD (Human), under 100 nM.
In the case of `CCc1ccccc1-n1c(Cn2nc(C#C[C@@H](C)O)c3c(N)ncnc32)cc2cccc(C)c2c1=O`, the IC50 is 100 to 1000 nM at PIK3CG (human) and over 10000 nM against PIK3CA (human).
On to `C=C(C)c1nn(Cc2cc3cccc(C)c3c(=O)n2-c2ccccc2)c2ncnc(N)c12`, for which the concentration for half-maximal inhibition (IC50) was 100 to 1000 nM against PIK3CG (human), over 10000 nM against PIK3CA (human) and under 100 nM against PIK3CD (Human).
For the compound `Cc1ccccc1-n1c(Cn2nc(-c3ccc(Cl)cc3)c3c(N)ncnc32)cc2cccc(C)c2c1=O`, the 50% inhibitory concentration (IC50) was 100 to 1000 nM at PIK3CG (human), over 10000 nM at PIK3CA (human) and 100 to 1000 nM on PIK3CD (Human).
For the compound `Cc1cccc2cc(Cn3nc(I)c4c(N)ncnc43)n(-c3ccccc3Cl)c(=O)c12`, the concentration for half-maximal inhibition (IC50) against PIK3CG (human) is 100 to 1000 nM; against PIK3CB (Human), over 10000 nM.
As for `Cc1cccc2cc(Cn3nc(-c4cc(O)cc(F)c4)c4c(N)ncnc43)n(-c3ccccc3OCCN3CCOCC3)c(=O)c12`, the concentration for half-maximal inhibition (IC50) against PIK3CG (human) was 100 to 1000 nM.
`CC(Nc1ncnc2[nH]cnc12)c1cc2ccccc2c(=O)n1-c1ccccc1` (centres undefined): the 50% inhibitory concentration (IC50) against PIK3CG (human) is 100 to 1000 nM; on PIK3CA (human), over 10000 nM; on PIK3CD (Human), under 100 nM.
`Cc1ccccc1-n1c(Cn2nc(-c3cc(O)cc(F)c3)c3c(N)ncnc32)cc2cccc(F)c2c1=O`: the results for the IC50 against PIK3CG (human) and on PIK3CA (human) were 100 to 1000 nM and over 10000 nM, respectively.
For `Cc1ccccc1-n1c(Cn2nc(Cl)c3c(N)ncnc32)cc2cccc(C)c2c1=O`, the concentration for half-maximal inhibition (IC50) is 100 to 1000 nM against PIK3CG (human) and over 10000 nM against PIK3CA (human).
Regarding `Cc1cccc2cc(Cn3nc(-c4ccc5nc(N)oc5c4)c4c(N)ncnc43)n(-c3ccccc3)c(=O)c12`, the results for the half-maximal inhibitory concentration (IC50) against PIK3CG (human) and against PIK3CD (Human) were under 100 nM and 100 to 1000 nM, respectively.
The like results for `Cc1cccc2cc(Cn3nc(-c4ccc(Cl)c(O)c4)c4c(N)ncnc43)n(C3CCCC3)c(=O)c12` were, in that order, 100 to 1000 nM and 100 to 1000 nM.
Take `COc1cccc(-c2nn(Cc3cc4cccc(C)c4c(=O)n3-c3ccccc3C)c3ncnc(N)c23)c1`: the concentration for half-maximal inhibition (IC50) against PIK3CG (human) is 100 to 1000 nM; against PIK3CA (human) it was over 10000 nM; on PIK3CD (Human) it was 100 to 1000 nM.
Turning to `CCC(Nc1ncnc2[nH]cnc12)c1cc2cccc(C)c2c(=O)n1-c1ccccc1C` (centres undefined), the IC50 at PIK3CG (human) was 100 to 1000 nM; on PIK3CA (human), over 10000 nM; against PIK3CD (Human) it was under 100 nM.
The like results for `COc1ccc(-c2nn(Cc3cc4cccc(C)c4c(=O)n3-c3ccccc3F)c3ncnc(N)c23)cc1OC` were, in that order, 100 to 1000 nM, over 10000 nM and 100 to 1000 nM.
Regarding `Cc1cccc2cc(Cn3nc(-c4cc(O)cc(F)c4)c4c(N)ncnc43)n(C(C)C)c(=O)c12`, the half-maximal inhibitory concentration (IC50) on PIK3CG (human) and against PIK3CB (Human) was 100 to 1000 nM in each case.
Turning to `Cc1cccc2cc(Cn3nc(-c4cccc(O)c4)c4c(N)ncnc43)n(C3CCCC3)c(=O)c12`, the half-maximal inhibitory concentration (IC50) on PIK3CG (human) was 100 to 1000 nM; against PIK3CA (human), over 10000 nM.
Regarding `CNc1ncc(Cl)c(N[C@@H](C)c2cc3cccc(C)c3c(=O)n2-c2ccccc2)n1`, the figures for the IC50 against PIK3CG (human), at PIK3CA (human) and against PIK3CD (Human) were 100 to 1000 nM, over 10000 nM and 100 to 1000 nM, respectively.
Turning to `Cc1cccc2cc(Cn3nc(-c4cn[nH]c4)c4c(N)ncnc43)n(-c3ccccc3F)c(=O)c12`, the results for the concentration for half-maximal inhibition (IC50) against PIK3CG (human) and against PIK3CA (human) were 100 to 1000 nM and over 10000 nM, respectively.
Take `Cc1cccc2cc(C(C)Nc3ncnc4[nH]cnc34)n(C3CCOCC3)c(=O)c12` (centres undefined): the half-inhibitory concentration (IC50) is 100 to 1000 nM against PIK3CG (human) and under 100 nM on PIK3CD (Human).
On to `Cc1cccnc1-n1c(Cn2nc(C#C[C@@H](C)O)c3c(N)ncnc32)cc2cccc(C)c2c1=O`, for which the IC50 against PIK3CA (human) was over 10000 nM; against PIK3CB (Human), over 10000 nM; on PIK3CD (Human) it was 100 to 1000 nM.
On to `Cc1cccc2cc(C(C)Nc3nc(O)ncc3N)n(-c3ccccc3)c(=O)c12` (centres undefined), for which the half-inhibitory concentration (IC50) at PIK3CA (human), against PIK3CB (Human) and against PIK3CD (Human) was over 10000 nM in each case.
As to `Cc1cccc2cc([C@H](C)Nc3nc(Cl)ncc3Cl)n(-c3ccccc3)c(=O)c12`, the IC50 against PIK3CA (human) is over 10000 nM; on PIK3CB (Human), over 10000 nM; on PIK3CD (Human), 100 to 1000 nM.
`Cc1ccccc1-n1c(Cn2nc(-c3cccc(O)c3)c3c(N)ncnc32)cc2ccccc2c1=O`: the half-maximal inhibitory concentration (IC50) was 100 to 1000 nM against PIK3CG (human) and over 10000 nM at PIK3CA (human).
For the compound `CC(=O)Nc1nc2ccc(-c3nn(Cc4cc5cccc(C)c5c(=O)n4-c4ccccc4)c4ncnc(N)c34)cc2o1`, the half-maximal inhibitory concentration (IC50) against PIK3CG (human) and on PIK3CD (Human) was 100 to 1000 nM each time.

The record behind these values is the Kinase Knowledgebase extract (Sharma et al. 2016).
